Assay results as given in PMC5218480 (PLoS ONE, 2017).

Test system: MV-4-11 cells
Test: Gene expression microarray analysis (Affymetrix PrimeView) and GSEA
Assay type: cell-based, human
Parameters: RFU PODN (11730768_x_at) / Fold change /veh PODN (11730768_x_at) / RFU LINC00158 (11744669_a_at) / Fold change /veh LINC00158 (11744669_a_at) / RFU DUSP10 (11751237_a_at) / Fold change /veh DUSP10 (11751237_a_at) / RFU ID3 (11757404_x_at) / Fold change /veh ID3 (11757404_x_at) / RFU PLEKHG5 (11737974_s_at) / Fold change /veh PLEKHG5 (11737974_s_at) / RFU LRRC4B (11730491_at) / Fold change /veh LRRC4B (11730491_at) / RFU GIMAP4 (11747438_a_at) / Fold change /veh GIMAP4 (11747438_a_at) / RFU KRT8 (11758183_x_at) / Fold change /veh KRT8 (11758183_x_at) / RFU CNN1 (11734310_a_at) / Fold change /veh CNN1 (11734310_a_at) / RFU VPS37D (11726825_at) / Fold change /veh VPS37D (11726825_at) / RFU C10orf10 (11716522_x_at) / Fold change /veh C10orf10 (11716522_x_at) / RFU KIR2DL2 /// KIR2DL4 /// KIR2DL5A /// KIR2DL5B /// KIR2DS1 /// KIR2DS2 /// KIR2DS3 /// KIR2DS4 /// KIR3DL3 /// KIR3DL3 /// KIR3DS1 (11738374_at) / Fold change /veh KIR2DL2 /// KIR2DL4 /// KIR2DL5A /// KIR2DL5B /// KIR2DS1 /// KIR2DS2 /// KIR2DS3 /// KIR2DS4 /// KIR3DL3 /// KIR3DL3 /// KIR3DS1 (11738374_at) / RFU C1QL1 (11718748_at) / Fold change /veh C1QL1 (11718748_at) / RFU TMPRSS4 (11747572_a_at) / Fold change /veh TMPRSS4 (11747572_a_at) / RFU HAMP (11756126_x_at) / Fold change /veh HAMP (11756126_x_at) / RFU RNFT2 (11725882_a_at) / Fold change /veh RNFT2 (11725882_a_at) / RFU NR4A2 (11747474_a_at) / Fold change /veh NR4A2 (11747474_a_at) / RFU ABCC12 (11746883_a_at) / Fold change /veh ABCC12 (11746883_a_at) / RFU TMEM136 (11760407_x_at) / Fold change /veh TMEM136 (11760407_x_at) / RFU CLDN22 /// WWC2 (11732394_at) / Fold change /veh CLDN22 /// WWC2 (11732394_at) / RFU HLA-DPB1 (11760878_x_at) / Fold change /veh HLA-DPB1 (11760878_x_at) / RFU SPINT1 (11716480_a_at) / Fold change /veh SPINT1 (11716480_a_at) / RFU GAP43 (11754022_s_at) / Fold change /veh GAP43 (11754022_s_at) / RFU A4GNT (11735810_at) / Fold change /veh A4GNT (11735810_at) / RFU PRB3 (11715151_x_at) / Fold change /veh PRB3 (11715151_x_at) / RFU TUBB4B (11761932_at) / Fold change /veh TUBB4B (11761932_at) / RFU CAPN14 (11732068_a_at) / Fold change /veh CAPN14 (11732068_a_at) / RFU TMCC2 (11721928_a_at) / Fold change /veh TMCC2 (11721928_a_at) / RFU IRGQ (11745062_a_at) / Fold change /veh IRGQ (11745062_a_at) / RFU FAM174B (11720279_a_at) / Fold change /veh FAM174B (11720279_a_at) / RFU TMPRSS4 (11748680_a_at) / Fold change /veh TMPRSS4 (11748680_a_at) / RFU FAM212B (11763350_a_at) / Fold change /veh FAM212B (11763350_a_at) / RFU PLEKHG5 (11743358_a_at) / Fold change /veh PLEKHG5 (11743358_a_at) / RFU ZSCAN30 (11745921_a_at) / Fold change /veh ZSCAN30 (11745921_a_at) / RFU CMKLR1 (11741424_a_at) / Fold change /veh CMKLR1 (11741424_a_at) / RFU LOC101060620 /// MAPK8IP1 (11723275_at) / Fold change /veh LOC101060620 /// MAPK8IP1 (11723275_at) / RFU SPTSSB (11747773_x_at) / Fold change /veh SPTSSB (11747773_x_at) / RFU PRSS12 (11739890_at) / Fold change /veh PRSS12 (11739890_at) / RFU BIN1 (11741810_x_at) / Fold change /veh BIN1 (11741810_x_at) / RFU WNT11 (11732464_a_at) / Fold change /veh WNT11 (11732464_a_at) / RFU C10orf10 (11716521_a_at) / Fold change /veh C10orf10 (11716521_a_at) / RFU C5orf56 (11738089_at) / Fold change /veh C5orf56 (11738089_at) / RFU CYB561 (11721691_x_at) / Fold change /veh CYB561 (11721691_x_at) / RFU ANKRD19P (11752326_a_at) / Fold change /veh ANKRD19P (11752326_a_at) / RFU OR2T12 /// OR2T33 /// OR2T8 (11738714_s_at) / Fold change /veh OR2T12 /// OR2T33 /// OR2T8 (11738714_s_at) / RFU VCAN (11748164_a_at) / Fold change /veh VCAN (11748164_a_at) / RFU JSRP1 (11732532_at) / Fold change /veh JSRP1 (11732532_at) / RFU KRTAP10-11 (11738290_x_at) / Fold change /veh KRTAP10-11 (11738290_x_at) / RFU MYO3A (11730013_a_at) / Fold change /veh MYO3A (11730013_a_at) / RFU EBF3 (11725865_a_at) / Fold change /veh EBF3 (11725865_a_at) / RFU CAMK2N1 (11719241_x_at) / Fold change /veh CAMK2N1 (11719241_x_at) / RFU C5orf56 (11738088_a_at) / Fold change /veh C5orf56 (11738088_a_at) / RFU OLFML3 (11715873_a_at) / Fold change /veh OLFML3 (11715873_a_at) / RFU LOC100653217 /// NTM (11731650_a_at) / Fold change /veh LOC100653217 /// NTM (11731650_a_at) / RFU MAPK11 (11762145_a_at) / Fold change /veh MAPK11 (11762145_a_at) / RFU FIZ1 (11724087_x_at) / Fold change /veh FIZ1 (11724087_x_at) / RFU OASL (11726364_x_at) / Fold change /veh OASL (11726364_x_at) / RFU SOX15 (11748057_x_at) / Fold change /veh SOX15 (11748057_x_at) / RFU CD79A (11719716_a_at) / Fold change /veh CD79A (11719716_a_at) / RFU HIST1H1D (11736915_at) / Fold change /veh HIST1H1D (11736915_at) / RFU CASKIN2 (11723855_a_at) / Fold change /veh CASKIN2 (11723855_a_at) / RFU LOC730098 (11760151_x_at) / Fold change /veh LOC730098 (11760151_x_at) / RFU OR4N2 (11742367_at) / Fold change /veh OR4N2 (11742367_at) / RFU PRRT2 (11749266_a_at) / Fold change /veh PRRT2 (11749266_a_at) / RFU SNX32 (11753110_a_at) / Fold change /veh SNX32 (11753110_a_at) / RFU CDHR5 (11726645_a_at) / Fold change /veh CDHR5 (11726645_a_at) / RFU RCAN1 (11760418_a_at) / Fold change /veh RCAN1 (11760418_a_at) / RFU FAM167A (11723789_a_at) / Fold change /veh FAM167A (11723789_a_at) / RFU FAM26E (11764081_at) / Fold change /veh FAM26E (11764081_at) / RFU ISYNA1 (11749810_s_at) / Fold change /veh ISYNA1 (11749810_s_at) / RFU ACY1 (11761880_at) / Fold change /veh ACY1 (11761880_at) / RFU 11764098_at / Fold change /veh 11764098_at / RFU SAMD14 (11745864_x_at) / Fold change /veh SAMD14 (11745864_x_at) / RFU NPB (11741838_a_at) / Fold change /veh NPB (11741838_a_at) / RFU TMPRSS6 (11731388_a_at) / Fold change /veh TMPRSS6 (11731388_a_at) / RFU KRTAP10-2 (11738614_at) / Fold change /veh KRTAP10-2 (11738614_at) / RFU ARHGAP8 /// PRR5-ARHGAP8 (11727945_x_at) / Fold change /veh ARHGAP8 /// PRR5-ARHGAP8 (11727945_x_at) / RFU KRTAP5-7 /// NADSYN1 (11734609_at) / Fold change /veh KRTAP5-7 /// NADSYN1 (11734609_at) / RFU RASL12 (11751679_a_at) / Fold change /veh RASL12 (11751679_a_at) / RFU CDKN2B (11736163_a_at) / Fold change /veh CDKN2B (11736163_a_at) / RFU PRF1 (11729649_at) / Fold change /veh PRF1 (11729649_at) / RFU, ZNF638 /// ZNF638-IT1 / Fold change vs veh, ZNF638 /// ZNF638-IT1 / RFU, PANK3 / Fold change vs veh, PANK3 / RFU, SH3YL1 / Fold change vs veh, SH3YL1 / RFU, ZEB2 / Fold change vs veh, ZEB2 / RFU, NRIP1 / Fold change vs veh, NRIP1 / RFU, PTTG1IP / Fold change vs veh, PTTG1IP / RFU, CAPN2 / Fold change vs veh, CAPN2 / RFU, MED14 / Fold change vs veh, MED14 / RFU, SNORA58 / Fold change vs veh, SNORA58 / RFU, C1orf63 / Fold change vs veh, C1orf63 / RFU, LRRFIP1 / Fold change vs veh, LRRFIP1 / RFU, NDUFAF7 / Fold change vs veh, NDUFAF7 / RFU, SLC12A2 / Fold change vs veh, SLC12A2 / RFU, IBTK / Fold change vs veh, IBTK / RFU, ESF1 / Fold change vs veh, ESF1 / Fold change vs veh, TMEM50B / RFU, TAOK1 / Fold change vs veh, TAOK1 / RFU, ACBD3 / Fold change vs veh, ACBD3 / RFU, TMA16 / Fold change vs veh, TMA16 / RFU, RWDD3 / Fold change vs veh, RWDD3 / RFU, BCAT1 / Fold change vs veh, BCAT1 / RFU, EDEM3 / Fold change vs veh, EDEM3 / RFU, TMEM33 / Fold change vs veh, TMEM33 / RFU, WDR75 / Fold change vs veh, WDR75 / RFU, AHCTF1 / Fold change vs veh, AHCTF1 / RFU, TFRC / Fold change vs veh, TFRC / RFU, ZDHHC17 / Fold change vs veh, ZDHHC17 / RFU, NOM1 / Fold change vs veh, NOM1 / RFU, ARL8B / Fold change vs veh, ARL8B / RFU, ZBTB11 / Fold change vs veh, ZBTB11 / RFU, TAMM41 / Fold change vs veh, TAMM41 / RFU, KIAA1704 /// LOC100996395 / Fold change vs veh, KIAA1704 /// LOC100996395 / RFU, ING1 / Fold change vs veh, ING1 / RFU, TRMT61B / Fold change vs veh, TRMT61B / RFU, FUBP3 / Fold change vs veh, FUBP3 / RFU, TP53 / Fold change vs veh, TP53 / RFU, TNKS2 / Fold change vs veh, TNKS2 / RFU, ZFP14 / Fold change vs veh, ZFP14 / RFU, ACTR2 / Fold change vs veh, ACTR2 / RFU, PPP3R1 / Fold change vs veh, PPP3R1 / RFU, PIK3R1 / Fold change vs veh, PIK3R1 / RFU, HNRNPA1 / Fold change vs veh, HNRNPA1 / RFU, RNF170 / Fold change vs veh, RNF170 / RFU, ZNF28 / Fold change vs veh, ZNF28 / RFU, RNGTT / Fold change vs veh, RNGTT / RFU, OGT / Fold change vs veh, OGT / RFU, BRD1 / Fold change vs veh, BRD1 / RFU, MARS / Fold change vs veh, MARS / RFU, ZNF655 / Fold change vs veh, ZNF655 / RFU, FAHD1 / Fold change vs veh, FAHD1 / RFU, BDP1 / Fold change vs veh, BDP1 / RFU, LRRCC1 / Fold change vs veh, LRRCC1 / RFU, ARID1A / Fold change vs veh, ARID1A / RFU, ZNF146 / Fold change vs veh, ZNF146 / RFU, ZNF330 / Fold change vs veh, ZNF330 / RFU, GPN3 / Fold change vs veh, GPN3 / RFU, C9orf123 / Fold change vs veh, C9orf123 / RFU, N4BP2L2 / Fold change vs veh, N4BP2L2 / RFU, ARFIP1 / Fold change vs veh, ARFIP1 / RFU, FAM179B / Fold change vs veh, FAM179B / RFU, BCL10 / Fold change vs veh, BCL10 / RFU, UHRF1BP1L / Fold change vs veh, UHRF1BP1L / RFU, BET1 / Fold change vs veh, BET1 / RFU, CNOT2 / Fold change vs veh, CNOT2 / RFU, ZNF268 / Fold change vs veh, ZNF268 / Fold change vs veh, ZNF507 / RFU, DGCR2 / Fold change vs veh, DGCR2 / RFU, WDSUB1 / Fold change vs veh, WDSUB1 / Fold change vs veh, HSP90B1 /// MIR3652 / RFU, ADSS / Fold change vs veh, ADSS / RFU, GK / Fold change vs veh, GK / RFU, ZNF148 / Fold change vs veh, ZNF148 / RFU, TAF9 / Fold change vs veh, TAF9 / RFU, SLC1A5 / Fold change vs veh, SLC1A5 / RFU, SLMO2 / Fold change vs veh, SLMO2 / RFU, ABCC4 / Fold change vs veh, ABCC4 / RFU, LOC101060439 /// RAP1B / Fold change vs veh, LOC101060439 /// RAP1B / RFU, RFX7 / Fold change vs veh, RFX7 / RFU, GTPBP10 / Fold change vs veh, GTPBP10 / RFU, CNEP1R1 / Fold change vs veh, CNEP1R1 / RFU, BIVM-ERCC5 /// ERCC5 / Fold change vs veh, BIVM-ERCC5 /// ERCC5 / RFU, ILF3 / Fold change vs veh, ILF3 / RFU 11762660_at / Fold change /veh 11762660_at / RFU VCAN (11757783_s_at) / Fold change /veh VCAN (11757783_s_at) / RFU DDX43 (11728927_at) / Fold change /veh DDX43 (11728927_at) / RFU KRT8 (11758188_x_at) / Fold change /veh KRT8 (11758188_x_at) / RFU NKD1 (11759106_at) / Fold change /veh NKD1 (11759106_at) / RFU SRD5A1 (11742802_a_at) / Fold change /veh SRD5A1 (11742802_a_at) / RFU TPSAB1 /// TPSB2 (11721975_s_at) / Fold change /veh TPSAB1 /// TPSB2 (11721975_s_at) / RFU GSTM3 (11746129_a_at) / Fold change /veh GSTM3 (11746129_a_at) / RFU IL23R (11737362_x_at) / Fold change /veh IL23R (11737362_x_at) / RFU TMEM51 (11727254_a_at) / Fold change /veh TMEM51 (11727254_a_at) / RFU PIWIL2 (11732686_x_at) / Fold change /veh PIWIL2 (11732686_x_at) / RFU ORM1 (11744905_x_at) / Fold change /veh ORM1 (11744905_x_at) / RFU CCDC152 (11743942_at) / Fold change /veh CCDC152 (11743942_at) / RFU ECM1 (11717891_a_at) / Fold change /veh ECM1 (11717891_a_at) / RFU IL23R (11748794_a_at) / Fold change /veh IL23R (11748794_a_at) / RFU TNFAIP8L3 (11732012_x_at) / Fold change /veh TNFAIP8L3 (11732012_x_at) / RFU MBOAT4 (11741988_at) / Fold change /veh MBOAT4 (11741988_at) / RFU 11764193_at / Fold change /veh 11764193_at / RFU TMEM53 (11763286_at) / Fold change /veh TMEM53 (11763286_at) / RFU MAGEB2 (11727129_at) / Fold change /veh MAGEB2 (11727129_at) / RFU TMEM200A (11744735_a_at) / Fold change /veh TMEM200A (11744735_a_at) / RFU CCDC152 (11751479_a_at) / Fold change /veh CCDC152 (11751479_a_at) / RFU FAM211A (11726209_a_at) / Fold change /veh FAM211A (11726209_a_at) / RFU RGS16 (11746705_a_at) / Fold change /veh RGS16 (11746705_a_at) / RFU VCAN (11755009_s_at) / Fold change /veh VCAN (11755009_s_at) / RFU RHOB (11743442_s_at) / Fold change /veh RHOB (11743442_s_at) / RFU RGS16 (11720943_a_at) / Fold change /veh RGS16 (11720943_a_at) / RFU RGS16 (11720944_at) / Fold change /veh RGS16 (11720944_at) / RFU, VPS4B / Fold change vs veh, VPS4B / RFU, CREB1 / Fold change vs veh, CREB1 / RFU, DNAJC13 / Fold change vs veh, DNAJC13 / RFU, GNAQ / Fold change vs veh, GNAQ / RFU, CDK5R1 / Fold change vs veh, CDK5R1 / RFU, ZRANB3 / Fold change vs veh, ZRANB3 / RFU, CUL4A / Fold change vs veh, CUL4A / RFU, CCNY / Fold change vs veh, CCNY / RFU, UFL1 / Fold change vs veh, UFL1 / RFU, COG3 / Fold change vs veh, COG3 / RFU, DIAPH2 / Fold change vs veh, DIAPH2 / RFU, SKA2 / Fold change vs veh, SKA2 / RFU, AFF3 / Fold change vs veh, AFF3 / RFU, LMF1 / Fold change vs veh, LMF1 / RFU, IPO11 / Fold change vs veh, IPO11 / RFU, DFFB / Fold change vs veh, DFFB / RFU, FOXP1 / Fold change vs veh, FOXP1 / RFU, CARD8 / Fold change vs veh, CARD8 / RFU, STRN3 / Fold change vs veh, STRN3 / RFU, ADK / Fold change vs veh, ADK / RFU, RASSF2 / Fold change vs veh, RASSF2 / RFU, WIPF1 / Fold change vs veh, WIPF1 / RFU, LARP1B / Fold change vs veh, LARP1B / RFU, RASA1 / Fold change vs veh, RASA1 / RFU, RB1 / Fold change vs veh, RB1 / RFU, PPFIA1 / Fold change vs veh, PPFIA1 / RFU, MAT2A / Fold change vs veh, MAT2A / RFU, CCT5 / Fold change vs veh, CCT5 / RFU, WDR92 / Fold change vs veh, WDR92 / RFU, CUX1 / Fold change vs veh, CUX1 / RFU, TTC7A / Fold change vs veh, TTC7A / RFU, TMEM135 / Fold change vs veh, TMEM135 / RFU, DEPTOR / Fold change vs veh, DEPTOR / RFU, CPM / Fold change vs veh, CPM / RFU, DNAJB6 / Fold change vs veh, DNAJB6 / RFU, CACNA2D3 / Fold change vs veh, CACNA2D3 / RFU, DTX4 / Fold change vs veh, DTX4 / RFU, TFCP2 / Fold change vs veh, TFCP2 / RFU, GMCL1 /// GMCL1P1 / Fold change vs veh, GMCL1 /// GMCL1P1 / RFU, AEBP2 / Fold change vs veh, AEBP2 / RFU, SNHG1 /// SNORD22 /// SNORD25 /// SNORD26 /// SNORD27 /// SNORD28 /// SNORD29 /// SNORD31 / Fold change vs veh, SNHG1 /// SNORD22 /// SNORD25 /// SNORD26 /// SNORD27 /// SNORD28 /// SNORD29 /// SNORD31 / Fold change (Aza/veh), C12orf56 (ProbeSet 11735607_a_at) / Fold change (ACY-1035/veh), C12orf56 (ProbeSet 11735607_a_at) / Fold change (Aza/veh), FGFR1OP (ProbeSet 11751329_s_at) / Fold change (ACY-1035/veh), FGFR1OP (ProbeSet 11751329_s_at) / Fold change (Aza/veh), VPS36 (ProbeSet 11739960_a_at) / Fold change (ACY-1035/veh), VPS36 (ProbeSet 11739960_a_at) / RFU SYPL1 (11715823_x_at) / Fold change /veh SYPL1 (11715823_x_at) / RFU IGFBP7 (11715501_s_at) / Fold change /veh IGFBP7 (11715501_s_at) / RFU REEP3 (11722064_at) / Fold change /veh REEP3 (11722064_at) / RFU IGLL1 (11728026_x_at) / Fold change /veh IGLL1 (11728026_x_at): dose or concentration left out as unconfirmed
Settings: ProbeSet 11739263_x_at; LIST D

## Nc1ncn([C@@H]2O[C@H](CO)[C@@H](O)[C@H]2O)c(=O)n1 [azacitidine]
  RFU, VPS4B: 59.01 RFU
